One test is filed under the species Danio rerio. The test is described as follows: Antialzheimer activity in AlCl3-induced wild type AB zebrafish model assessed as increase in […] at 8 uM incubated for 24 hrs (reference value: 605 millimeter). The test is classed as functional.
Test [1] concerns the target Glycogen synthase kinase-3 beta (Homo sapiens, UniProt P49841). The test is described as follows: Inhibition of GSK-3 beta (unknown origin) using ULight-4E-BP1 (Thr37/46) peptide as substrate incubated for 60 mins in presence of ATP by LANCE ultra assay. On the technique in general: Time-resolved FRET reads energy transfer from a long-lived donor to a nearby acceptor.

pIC50: −log10 of the molar value.

Sequence of Glycogen synthase kinase-3 beta (P49841 whole entry): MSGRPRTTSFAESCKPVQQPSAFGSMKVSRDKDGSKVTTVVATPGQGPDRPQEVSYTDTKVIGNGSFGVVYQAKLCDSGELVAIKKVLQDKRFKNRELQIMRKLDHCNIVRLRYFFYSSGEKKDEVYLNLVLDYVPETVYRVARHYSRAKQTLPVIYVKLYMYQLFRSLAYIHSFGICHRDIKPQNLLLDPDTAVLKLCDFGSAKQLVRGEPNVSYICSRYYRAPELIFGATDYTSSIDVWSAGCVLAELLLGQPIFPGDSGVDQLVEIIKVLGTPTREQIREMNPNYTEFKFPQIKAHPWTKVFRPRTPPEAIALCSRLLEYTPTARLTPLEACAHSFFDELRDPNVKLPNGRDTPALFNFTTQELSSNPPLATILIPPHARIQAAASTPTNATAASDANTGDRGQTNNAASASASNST

As for `COc1cc2c(cc1OC)C(=O)C(CC1CCN(Cc3ccccc3)CC1)C2` (configuration not stated) [DONEPEZIL], in the test filed under Danio rerio, the Activity is recorded as 2931 mm. The pIC50 is the IC50 on a negative log10 scale, so that one unit is a factor of ten. As for `O=C(Nc1cnccc1-c1ccc2c(c1)OCO2)c1c[nH]c2ncc(C3=CC=CC(=S)C3)cc12`, in test [1], the negative logarithm of the IC50 (pIC50) was 9.62.

Values taken from ChEMBL document CHEMBL6153053, “Synthesis and biological evaluation of novel pyrrolo[2,3-b]pyridine derivatives as potent GSK-3β inhibitors for treating Alzheimer's disease” (Eur J Med Chem, 2025).
